# Source: patent US9029405B2, “5-(biphenyl-4-yl)-3-phenyl-1,2,4-oxadiazolyl derivatives as ligands on the sphingosine 1-phosphate(SIP)receptors” (Merck Serono S.A., priority 2010, dated 2015)
# Structures can show the parent of a compound that is named as a salt. Where two headings read alike, the source gives them in different places.
# What was measured:
# [1] = molecular target: T1, S1P1 (Homo sapiens, UniProt P21453); assay: Receptor binding assay, [33P]sphingosine 1-phosphate competition, membranes of CHO cells expressing S1P1
# In short: (§1)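 SPA competition on CHO membranes with [33P]S1P at 30 pM (S1P1) or 15 pM (S1P3), in 50 mM HEPES pH 7.5, 5 mM MgCl2, 100 mM NaCl, 0.4% fatty acid-free BSA, 60 min at RT. Non-specific binding defined by 1000-fold unlabeled S1P; Ki values reported.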
# Target sequence in this assay (P21453 whole entry, species assumed): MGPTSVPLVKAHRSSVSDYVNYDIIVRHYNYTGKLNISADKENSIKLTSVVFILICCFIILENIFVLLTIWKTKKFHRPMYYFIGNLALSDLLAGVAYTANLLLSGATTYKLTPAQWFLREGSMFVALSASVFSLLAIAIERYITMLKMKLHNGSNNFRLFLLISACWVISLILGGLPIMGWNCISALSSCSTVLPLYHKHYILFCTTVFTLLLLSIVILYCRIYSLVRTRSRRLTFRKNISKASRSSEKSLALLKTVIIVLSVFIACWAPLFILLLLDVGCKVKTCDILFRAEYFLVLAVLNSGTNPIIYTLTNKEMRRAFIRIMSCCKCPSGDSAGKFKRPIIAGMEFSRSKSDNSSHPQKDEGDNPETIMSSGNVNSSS
# [2] = molecular target: S1P3 (Homo sapiens, UniProt Q99500); assay: Receptor binding assay, [33P]sphingosine 1-phosphate competition, membranes of CHO cells expressing S1P3
# In short: as §1
# [3] = molecular target: T1, S1P1; assay: S1P1 internalization assay in S1P1-U2OS cells (cell imaging); type: cell-based; parameters: host or cells: U2OS (human bone osteosarcoma epithelial cells); conditions: U2OS cells expressing S1P1-EGFP, 384-well format
# In short: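 U2OS cells stably expressing human S1P1-EGFP, serum-starved 2 h in medium with 0.1% fatty-acid-free BSA, then compound 1 h at 37° C. After fixation and Hoechst nuclear stain, receptor internalization imaged as EGFP spot count per nucleus.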
# Target sequence in this assay (P21453 whole entry): as the sequence (P21453 whole entry, species assumed) above
# [4] = 384 well plate, read-out: S1P1 Binding Ki [M] (384 well plate)
# [5] = 384 well plate, read-out: S1P3 Binding Ki [M] (384 well plate)
# [6] = 96 well plate, read-out: S1P3 Binding Ki [M] (96 well plate)
# S1P3, sequence (Q99500 whole entry, species assumed): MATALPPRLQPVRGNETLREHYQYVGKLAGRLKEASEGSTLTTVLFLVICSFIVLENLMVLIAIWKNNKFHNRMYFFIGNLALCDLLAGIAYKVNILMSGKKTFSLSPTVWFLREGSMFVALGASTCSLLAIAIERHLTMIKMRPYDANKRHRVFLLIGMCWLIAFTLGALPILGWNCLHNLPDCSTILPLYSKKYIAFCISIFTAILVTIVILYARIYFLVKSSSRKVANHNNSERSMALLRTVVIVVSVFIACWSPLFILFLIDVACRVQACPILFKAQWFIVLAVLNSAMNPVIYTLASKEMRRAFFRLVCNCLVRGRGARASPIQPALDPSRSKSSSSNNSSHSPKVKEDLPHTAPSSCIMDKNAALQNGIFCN
Structure (SMILES),"Ki [1, 4]","Ki [2, 5]",EC50 [3],"Ki ([1]; 96 well plate, read-out: S1P1 Binding Ki [M] (96 well plate))","Ki [2, 6]"
"Cc1ccccc1-c1ccc(-c2nc(-c3ccc(C(C)N(C)[C@@H](C)C(=O)O)cc3)no2)cc1C(F)(F)F (stereo partly drawn) [Example 39, N-methyl-N-[1-(4-{5-[2′-methyl-2-(trifluoromethyl)biphenyl-4-yl]-1,2,4-oxadiazol-3-yl}phenyl)ethyl]alanine]",4.34e-09 M,3.18e-06 M,20.9 nM,,
"Cc1ccccc1-c1ccc(-c2nc(-c3ccc([C@H](C)NCC(=O)O)cc3)no2)cc1C(F)(F)F [Example 21, N-[(1S)-1-(4-{5-[2′-methyl-2-(trifluoromethyl)biphenyl-4-yl]-1,2,4-oxadiazol-3-yl}phenyl)ethyl]glycine, hydrochloride salt]",2.19e-09 M,1.21e-06 M,11.2 nM,,
"Cc1ccccc1-c1ccc(-c2nc(-c3ccc([C@H](C)N[C@H](C)C(=O)O)cc3)no2)cc1C(F)(F)F [Example 17, N-[(1S)-1-(4-{5-[2′-methyl-2-(trifluoromethyl)biphenyl-4-yl]-1,2,4-oxadiazol-3-yl}phenyl)ethyl]-D-alanine, hydrochloride salt]",2.01e-09 M,2.25e-06 M,21 nM,,
"Cc1ccccc1-c1ccc(-c2nc(-c3cc(F)cc(CN[C@@H](CC(C)C)C(=O)O)c3)no2)cc1C(F)(F)F [Example 12, N-(3-fluoro-5-{5-[2′-methyl-2-(trifluoromethyl)biphenyl-4-yl]-1,2,4-oxadiazol-3-yl}benzyl)leucine, hydrochloride salt]",2.58e-09 M,6.43e-07 M,28.9 nM,,
"COCc1cc(-c2nc(-c3ccc(CN(C)[C@@H](C)C(=O)O)c(F)c3)no2)ccc1-c1ccccc1C [Example 44, N-(2-fluoro-4-{5-[2-(methoxymethyl)-2′-methylbiphenyl-4-yl]-1,2,4-oxadiazol-3-yl}benzyl)-N-methylalanine, hydrochloride salt]",1.58e-09 M,8.69e-07 M,6.29 nM,,
"CCC(NCc1ccc(-c2noc(-c3ccc(-c4ccccc4C)c(C(F)(F)F)c3)n2)cc1F)C(=O)O (stereo not drawn) [Example 41, 2-[(2-fluoro-4-{5-[2′-methyl-2-(trifluoromethyl)biphenyl-4-yl]-1,2,4-oxadiazol-3-yl}benzyl)amino]butanoic acid, hydrochloride salt]",4.88e-09 M,8.72e-06 M,12.8 nM,,
"COCc1cc(-c2nc(-c3ccc(CNC(C)(C)C(=O)O)c(F)c3)no2)ccc1-c1ccccc1C [Example 16, N-(2-fluoro-4-{5-[2-(methoxymethyl)-2′-methylbiphenyl-4-yl]-1,2,4-oxadiazol-3-yl}benzyl)-2-methylalanine, hydrochloride salt]",1.23e-09 M,7.2e-07 M,8.43 nM,,
"Cc1cc(-c2nc(-c3ccc([C@@H](C)N[C@H](C)C(=O)O)cc3)no2)ccc1-c1ccccc1C(F)(F)F [Example 6, N-[(1R)-1-(4-{5-[2-methyl-2′-(trifluoromethyl)biphenyl-4-yl]-1,2,4-oxadiazol-3-yl}phenyl)ethyl]-D-alanine, hydrochloride salt]",2.18e-09 M,> 2e-05 M,7.57 nM,9.92e-10 M,> 2e-05 M
"Cc1ccccc1-c1ccc(-c2nc(-c3ccc(CN(C)[C@H](C(=O)O)C(C)C)c(F)c3)no2)cc1C(F)(F)F [Example 13, N-(2-fluoro-4-{5-[2′-methyl-2-(trifluoromethyl)biphenyl-4-yl]-1,2,4-oxadiazol-3-yl}benzyl)-N-methylvaline, hydrochloride salt]",5.23e-09 M,1.53e-06 M,283 nM,,

# Next, values leading:
"Ki [1, 4]","Ki [2, 5]",EC50 [3],"Ki ([1]; 96 well plate, read-out: S1P1 Binding Ki [M] (96 well plate))","Ki [2, 6]",Structure (SMILES)
2.16e-09 M,2.78e-07 M,22.3 nM,,,Cc1ccccc1-c1ccc(-c2nc(-c3cccc(CNC(C)(CO)C(=O)O)c3)no2)cc1C(F)(F)F (stereo not drawn) [Example 78]
2.29e-09 M,4.68e-07 M,24.9 nM,,,"CCN(Cc1cccc(-c2noc(-c3ccc(-c4ccccc4C)c(C(F)(F)F)c3)n2)c1)[C@H](CO)C(=O)O [Example 87, (R)-2-(Ethyl-{3-[5-(2′-methyl-2-trifluoromethyl-biphenyl-4-yl)-[1,2,4]oxadiazol-3-yl]-benzyl}-amino)-3-hydroxy-propionic acid]"
5.33e-10 M,1.78e-07 M,3.73 nM,,,Cc1ccccc1-c1ccc(-c2nc(-c3cccc(CCN[C@H](C(=O)O)C(C)C)c3)no2)cc1C(F)(F)F [Example 96]
7.94e-10 M,9.55e-08 M,9.34 nM,,,"Cc1ccccc1-c1ccc(-c2nc(-c3cc(F)cc(CNC(C)(C)C(=O)O)c3)no2)cc1C(F)(F)F [Example 46, N-(3-fluoro-5-{5-[2′-methyl-2-(trifluoromethyl)biphenyl-4-yl]-1,2,4-oxadiazol-3-yl}benzyl)-2-methylalanine, hydrochloride salt]"
2.27e-09 M,5.42e-06 M,29.8 nM,,,Cc1ccccc1-c1ccc(-c2nc(-c3ccc(CN(C)C4(C(=O)O)CCCC4)cc3)no2)cc1C(F)(F)F [Example 73]
3.94e-09 M,2.66e-06 M,31.9 nM,,,Cc1ccccc1-c1ccc(-c2nc(-c3ccc(CN(C)[C@H](CO)C(=O)O)cc3)no2)cc1C(F)(F)F [Example 72]
3.76e-09 M,1.08e-06 M,10.2 nM,,,"Cc1ccccc1-c1ccc(-c2nc(-c3ccc(C(CO)NCC(=O)O)cc3)no2)cc1C(F)(F)F (stereo not drawn) [Example 52, 2-(2-Hydroxy-1-(4-(5-(2′-methyl-2-(trifluoromethyl)biphenyl-4-yl)-1,2,4-oxadiazol-3-yl)phenyl)ethylamino)acetic acid]"
2.56e-09 M,2.03e-06 M,32.2 nM,,,"CCN(Cc1ccc(-c2noc(-c3ccc(-c4ccccc4C)c(C(F)(F)F)c3)n2)cc1)[C@@H](C)C(=O)O [Example 89, (2S)-2-(ethyl(4-(5-(2′-methyl-2-(trifluoromethyl)biphenyl-4-yl)-1,2,4-oxadiazol-3-yl)benzyl)amino)propanoic acid]"
3.02e-09 M,6.61e-07 M,25.8 nM,,,"Cc1ccccc1-c1ccc(-c2nc(-c3ccc(CN(C)[C@@H](C)C(=O)O)c(F)c3)no2)cc1C(F)(F)F [Example 50, N-(2-fluoro-4-{5-[2′-methyl-2-(trifluoromethyl)biphenyl-4-yl]-1,2,4-oxadiazol-3-yl}benzyl)-N-methylalanine, hydrochloride salt]"
3.18e-10 M,3.51e-08 M,1.22 nM,,,Cc1ccccc1-c1ccc(-c2nc(-c3cccc(CNC4(C(=O)O)CCC4)c3)no2)cc1C(F)(F)F [Example 80]
3.97e-09 M,3.64e-06 M,42.2 nM,,,"COCc1cc(-c2nc(-c3ccc(CN(C)C4(C(=O)O)CCCC4)cc3)no2)ccc1-c1ccccc1C [Example 53, 1-((4-(5-(2-(methoxymethyl)-2′-methylbiphenyl-4-yl)-1,2,4-oxadiazol-3-yl)benzyl)(methyl)amino)cyclopentanecarboxylic acid]"
3.39e-09 M,5.22e-06 M,4.87 nM,,,CCC(NCc1ccc(-c2noc(-c3ccc(-c4ccccc4C)c(C(F)(F)F)c3)n2)cc1)C(=O)O (stereo not drawn) [Example 58]
1.07e-09 M,2.67e-07 M,15.1 nM,,3.32e-08 M,Cc1ccccc1-c1ccc(-c2nc(-c3cccc(CNC(C(=O)O)C(C)C)c3)no2)cc1C(F)(F)F (stereo not drawn) [Example 79]
5.3e-09 M,2.3e-06 M,30.2 nM,,,Cc1ccccc1-c1ccc(-c2nc(-c3ccc(CN(C)C(C)(CO)C(=O)O)cc3)no2)cc1C(F)(F)F (stereo not drawn) [Example 75]
